In PMC4767605 (Cancer chemotherapy and pharmacology, 2016):
Like-named read-outs stand apart in the source and are kept apart here.

[1] = Cohort 3 (n=3): ASP9853 37.5 mg + docetaxel 60 mg/m^2
[2] = Cohort 4 (n=7): ASP9853 50 mg + docetaxel 60 mg/m^2
[3] = Total ASP9853 combination with docetaxel (n=20)
[4] = lead-in phase, ASP9853 single agent
[5] = patients receiving ASP9853 in combination with docetaxel

O.O.O=C(/C=C/c1ccc(Cl)cc1)N[C@@H](Cc1ccccn1)C(=O)NCC(=O)N1CCC(Oc2cc(C(F)(F)F)ncn2)CC1 [ASP9853, (2E)-3-(4-chlorophenyl)-N-[(1S)-2-oxo-2-{[2-oxo-2-(4-{[6-(trifluoromethyl)-4-pyrimidinyl]oxy}-1-piperidinyl)ethyl]amino}-1-(2-pyridinylmethyl)ethyl]acrylamide dehydrate]
AE potentially related to ASP9853: Decreased appetite; Grade All [1]: 1 (33) n (%) | AE potentially related to ASP9853: Diarrhea; Grade 3/4 (only Grade 3) [1]: 0 n (%) | AE potentially related to ASP9853: Diarrhea; Grade All [1]: 1 (33) n (%) | AE potentially related to ASP9853: Dizziness; Grade 3/4 [1]: 0 n (%) | AE potentially related to ASP9853: Dizziness; Grade All [1]: 1 (33) n (%) | AE potentially related to ASP9853: Fatigue; Grade 3/4 (only Grade 3) [1]: 0 n (%) | AE potentially related to ASP9853: Fatigue; Grade All [1]: 2 (67) n (%) | AE potentially related to ASP9853: Febrile neutropenia; Grade 3/4 [1]: 0 n (%) | AE potentially related to ASP9853: Febrile neutropenia; Grade All [1]: 0 n (%) | AE potentially related to ASP9853: Nausea; Grade 3/4 [1]: 0 n (%) | AE potentially related to ASP9853: Nausea; Grade All [1]: 1 (33) n (%) | AE potentially related to ASP9853: Neutropenia; Grade 3/4 [1]: 1 (33) n (%) | AE potentially related to ASP9853: Neutropenia; Grade All [1]: 1 (33) n (%) | AE potentially related to ASP9853: Neutrophil count decreased; Grade 3/4 [1]: 1 (33) n (%) | AE potentially related to ASP9853: Neutrophil count decreased; Grade All [1]: 1 (33) n (%) | AE potentially related to ASP9853: Overall; Grade 3/4 [1]: 2 (67) n (%) | AE potentially related to ASP9853: Overall; Grade All [1]: 3 (100) n (%) | AE potentially related to ASP9853: Vomiting; Grade 3/4 [1]: 0 n (%) | AE potentially related to ASP9853: Vomiting; Grade All [1]: 0 n (%) | AE potentially related to ASP9853: White blood cell count decreased; Grade All [1]: 2 (67) n (%) | DLTs (Cohort 3: ASP9853 37.5 mg + docetaxel 60 mg/m^2, three patients): no DLTs were observed | SAE considered related to ASP9853: leukopenia (Cohort 4): 1 n | SAE considered related to ASP9853: neutropenia (Cohort 4): 1 n | AE potentially related to ASP9853: Anemia; Grade 3/4 [2]: 0 n (%) | AE potentially related to ASP9853: Anemia; Grade All [2]: 1 (14) n (%) | AE potentially related to ASP9853: Asthenia; Grade 3/4 [2]: 0 n (%) | AE potentially related to ASP9853: Asthenia; Grade All [2]: 0 n (%) | AE potentially related to ASP9853: Constipation; Grade 3/4 [2]: 0 n (%) | AE potentially related to ASP9853: Constipation; Grade All [2]: 1 (14) n (%) | AE potentially related to ASP9853: Decreased appetite; Grade 3/4 [2]: 0 n (%) | AE potentially related to ASP9853: Decreased appetite; Grade All [2]: 0 n (%) | AE potentially related to ASP9853: Diarrhea; Grade 3/4 (only Grade 3) [2]: 0 n (%) | AE potentially related to ASP9853: Diarrhea; Grade All [2]: 0 n (%) | AE potentially related to ASP9853: Dizziness; Grade 3/4 [2]: 0 n (%) | AE potentially related to ASP9853: Dizziness; Grade All [2]: 2 (29) n (%) | AE potentially related to ASP9853: Fatigue; Grade 3/4 (only Grade 3) [2]: 1 (14) n (%) | AE potentially related to ASP9853: Fatigue; Grade All [2]: 2 (29) n (%) | AE potentially related to ASP9853: Febrile neutropenia; Grade 3/4 [2]: 0 n (%) | AE potentially related to ASP9853: Febrile neutropenia; Grade All [2]: 0 n (%) | AE potentially related to ASP9853: Nausea; Grade 3/4 [2]: 0 n (%) | AE potentially related to ASP9853: Nausea; Grade All [2]: 1 (14) n (%) | AE potentially related to ASP9853: Neutropenia; Grade 3/4 [2]: 2 (29) n (%) | AE potentially related to ASP9853: Neutropenia; Grade All [2]: 2 (29) n (%) | AE potentially related to ASP9853: Neutrophil count decreased; Grade 3/4 [2]: 1 (14) n (%) | AE potentially related to ASP9853: Neutrophil count decreased; Grade All [2]: 1 (14) n (%) | AE potentially related to ASP9853: Overall; Grade 3/4 [2]: 4 (57) n (%) | AE potentially related to ASP9853: Overall; Grade All [2]: 7 (100) n (%) | AE potentially related to ASP9853: Vomiting; Grade 3/4 [2]: 0 n (%) | AE potentially related to ASP9853: Vomiting; Grade All [2]: 1 (14) n (%) | AE potentially related to ASP9853: White blood cell count decreased; Grade All [2]: 2 (29) n (%) | AE potentially related to ASP9853: Anemia; Grade 3/4 [3]: 0 n (%) | AE potentially related to ASP9853: Anemia; Grade All [3]: 3 (15) n (%) | AE potentially related to ASP9853: Asthenia; Grade 3/4 [3]: 0 n (%) | AE potentially related to ASP9853: Asthenia; Grade All [3]: 2 (10) n (%) | AE potentially related to ASP9853: Constipation; Grade 3/4 [3]: 0 n (%) | AE potentially related to ASP9853: Constipation; Grade All [3]: 3 (15) n (%) | AE potentially related to ASP9853: Decreased appetite; Grade 3/4 [3]: 0 n (%) | AE potentially related to ASP9853: Decreased appetite; Grade All [3]: 2 (10) n (%) | AE potentially related to ASP9853: Diarrhea; Grade 3/4 (only Grade 3) [3]: 1 (5) n (%) | AE potentially related to ASP9853: Diarrhea; Grade All [3]: 4 (20) n (%) | AE potentially related to ASP9853: Dizziness; Grade 3/4 [3]: 0 n (%) | AE potentially related to ASP9853: Dizziness; Grade All [3]: 3 (15) n (%) | AE potentially related to ASP9853: Fatigue; Grade 3/4 (only Grade 3) [3]: 2 (10) n (%) | AE potentially related to ASP9853: Fatigue; Grade All [3]: 9 (45) n (%) | AE potentially related to ASP9853: Febrile neutropenia; Grade 3/4 [3]: 2 (10) n (%) | AE potentially related to ASP9853: Febrile neutropenia; Grade All [3]: 2 (10) n (%) | AE potentially related to ASP9853: Nausea; Grade 3/4 [3]: 0 n (%) | AE potentially related to ASP9853: Nausea; Grade All [3]: 4 (20) n (%) | AE potentially related to ASP9853: Neutropenia; Grade 3/4 [3]: 4 (20) n (%) | AE potentially related to ASP9853: Neutropenia; Grade All [3]: 4 (20) n (%) | AE potentially related to ASP9853: Neutrophil count decreased; Grade 3/4 [3]: 2 (10) n (%) | AE potentially related to ASP9853: Neutrophil count decreased; Grade All [3]: 2 (10) n (%) | AE potentially related to ASP9853: Overall; Grade 3/4 [3]: 11 (55) n (%) | AE potentially related to ASP9853: Overall; Grade All [3]: 18 (90) n (%) | AE potentially related to ASP9853: Vomiting; Grade 3/4 [3]: 0 n (%) | AE potentially related to ASP9853: Vomiting; Grade All [3]: 4 (20) n (%) | AE potentially related to ASP9853: White blood cell count decreased; Grade All [3]: 5 (25) n (%) | Patients with AEs considered to be potential DLTs (all cohorts, ASP9853 + docetaxel): Five | Patients who met the protocol-defined DLT criteria (in Cohorts 1 and 2): three | Patients with post-baseline maximum Grade 1 neutropenia (laboratory evaluation): three | Patients with post-baseline maximum Grade 4 neutropenia (laboratory evaluation): eight | AE possibly related to ASP9853: QT prolonged electrocardiogram [4]: 1 n | AE possibly related to ASP9853: arthralgia [4]: 1 n | AE possibly related to ASP9853: asthenia [4]: 1 n | AE possibly related to ASP9853: gastrooesophageal reflux disease [4]: 1 n | AE possibly related to ASP9853: leukopenia [4]: 1 n | AE possibly related to ASP9853: nausea [4]: 1 n | AE possibly related to ASP9853: pollakiuria [4]: 1 n | AE possibly related to ASP9853: vomiting [4]: 1 n | AE regardless of relationship to study drug: alopecia [5]: 30.0% | AE regardless of relationship to study drug: decreased appetite [5]: 30.0% | AE regardless of relationship to study drug: decreased white blood cells [5]: 35.0% | AE regardless of relationship to study drug: fatigue [5]: 45.0% | AE regardless of relationship to study drug: nausea [5]: 35.0% | AE regardless of relationship to study drug: neutropenia [5]: 50.0%
